The text below walks through data of ChEMBL document CHEMBL5055664, “A Novel Anticancer Stem Cell Compound Derived from Pleuromutilin Induced Necroptosis of Melanoma Cells” (J Med Chem, 2021).

pIC50: −log10 of the molar value. Values after ≈ are worked out from the molar mass of the structure shown. Active and inactive are the calls of the source. The rule behind the calls is not given here.

The subject of series [1] is B16-F10. In words: Cytotoxicity against mouse B16-F10 cells assessed as inhibition of cell growth measured after 72 hrs by MTT assay. Conditions: B16-F10, 72 h. Type of series: functional, cell-based. Background: Formazan colour is commonly taken as a measure of viable cells.
For series [2], the system named is A-375. In words: Cytotoxicity against human A-375 cells assessed as inhibition of cell growth measured after 72 hrs by MTT assay. Type of series: functional, cell-based. As to conditions: A-375, 72 h.
The subject of the next series is 4T1. As to the kind of experiment: Cytotoxicity against mouse 4T1 cells assessed as inhibition of cell growth measured after 72 hrs by MTT assay. Type of series: functional, cell-based. Conditions: 4T1, 72 h.
The test system of the next series is Kasumi 1. In words: cells. As to conditions: Homo sapiens, Kasumi 1, 72 h.
In the next series the test system is CT26. In words: cells. As to conditions: Mus musculus, CT26, 72 h.
A further series deals with HCT-116. As to the kind of experiment: cells. As to conditions: Homo sapiens, HCT-116, 72 h.
The nature of series [3]: Cmax in Sprague-Dawley rat at 50 mg/kg, po by LC-MS/MS analysis. Type of series: ADME, organism-based. Conditions: in vivo. On the set-up: dose 50 mg/kg, route po.
Series [4] in a line: Tmax in Sprague-Dawley rat at 50 mg/kg, po by LC-MS/MS analysis. Conditions: in vivo. Type of series: ADME, organism-based.
Series [5] can be described thus: Half life in Sprague-Dawley rat at 50 mg/kg, po by LC-MS/MS analysis. Type of series: ADME, organism-based. Conditions: in vivo.
Series [6] in a line: MRT (0 to t) in Sprague-Dawley rat at 50 mg/kg, po by LC-MS/MS analysis. As to conditions: in vivo. Type of series: ADME, organism-based.
Series [7] in a line: Oral bioavailability in Sprague-Dawley rat at 50 mg/kg by LC-MS/MS analysis. The series is classed as ADME, organism-based. As to conditions: in vivo.
Series [8] is described as follows: Cmax in Sprague-Dawley rat at 20 mg/kg, iv by LC-MS/MS analysis. On the set-up: dose 20 mg/kg, route iv. As to conditions: in vivo. The series is classed as ADME, organism-based.
The nature of series [9]: Tmax in Sprague-Dawley rat at 20 mg/kg, iv by LC-MS/MS analysis. Type of series: ADME, organism-based. Conditions: in vivo.
Series [10] is described as follows: Half life in Sprague-Dawley rat at 20 mg/kg, iv by LC-MS/MS analysis. The series is classed as ADME, organism-based. Conditions: in vivo.
Series [11] in a line: MRT (0 to t) in Sprague-Dawley rat at 20 mg/kg, iv by LC-MS/MS analysis. As to conditions: in vivo. The series is classed as ADME, organism-based.
The test system of series [12] is B16-F10. As to the kind of experiment: Anticancer activity against mouse B16-F10 cancer stem cells assessed as CD44+CD24+ marker cells at 1.25 uM measured after 30 hrs by FITC/APC staining based flow cytometry (reference value: […]). Type of series: functional.
Series [13] deals with B16-F10. In words: Anticancer activity against mouse B16-F10 cancer stem cells assessed as CD44+CD24+ marker cells at […] measured after 30 hrs by FITC/APC staining based flow cytometry (reference value: […]). The series is classed as functional. Conditions: dose 2.5 µM. On the technique in general: A flow cytometer gives signals particle by particle.
Series [14] concerns B16-F10. As to the kind of experiment: Anticancer activity against mouse B16-F10 cancer stem cells assessed as CD44+CD24+ marker cells at 5 uM measured after 30 hrs by FITC/APC staining based flow cytometry (reference value: […]). The series is classed as functional.
The subject of series [15] is A-375. In words: Anticancer activity against human A-375 cancer stem cells assessed as CD44+CD133+ marker cells at 1.25 uM measured after 30 hrs by FITC/APC staining based flow cytometry (reference value: […]). The series is classed as functional.
The subject of series [16] is A-375. As to the kind of experiment: Anticancer activity against human A-375 cancer stem cells assessed as CD44+CD133+ marker cells at […] measured after 30 hrs by FITC/APC staining based flow cytometry (reference value: […]). As to conditions: dose 2.5 µM. The series is classed as functional.
The subject of series [17] is A-375. In words: Anticancer activity against human A-375 cancer stem cells assessed as CD44+CD133+ marker cells at 5 uM measured after 30 hrs by FITC/APC staining based flow cytometry (reference value: […]). Type of series: functional.
In the next series the test system is Staphylococcus aureus. In words: Antimicrobial activity against Staphylococcus aureus assessed as bacterial growth inhibition. The series is classed as functional.
The next series has as its system Escherichia coli. In words: Antimicrobial activity against Escherichia coli assessed as bacterial growth inhibition. Type of series: functional.
Another series has as its system Bacillus subtilis. In words: Antimicrobial activity against Bacillus subtilis assessed as bacterial growth inhibition. The series is classed as functional.
In series [18] the test system is B16-F10. As to the kind of experiment: Induction of morphological changes in mouse B16-F10 cells assessed as formation of apoptotic bodies at 0.5 to […] measured after 48 hrs by AnnexinV-FITC/propidium iodide staining based flow cytometry. The series is classed as functional, cell-based. Conditions: dose 0.5-2.5 µM.
In series [19] the test system is B16-F10. In words: Induction of secondary necrosis in mouse B16-F10 cells at 0.5 to […] measured after 48 hrs by AnnexinV-FITC/propidium iodide staining based flow cytometry. The series is classed as functional, cell-based. As to conditions: dose 0.5-2.5 µM.

In the case of `C=C[C@]1(C)C[C@@H](O)[C@]2(C)[C@H](C)CC[C@]3(CC(=C)C(=O)[C@H]32)[C@@H](C)[C@@H]1OC(=O)Cc1ccc(F)cc1`, the pIC50 (as a rule, the IC50 on a negative log10 scale, so that one unit is a factor of ten) with B16-F10 [1] was 5.64; with A-375 [2] it was 5.24; in the series on 4T1, under 5.00; in the series with Kasumi 1, 5.61; with CT26, under 5.00; in the series on HCT-116 it was 5.03.
As to `C=C[C@]1(C)C[C@@H](OC(=O)c2ccc(C(F)(F)F)cn2)[C@]2(C)[C@H](C)CC[C@]3(CC(=C)C(=O)[C@H]32)[C@@H](C)[C@@H]1OC(=O)c1ccc(C(F)(F)F)cn1`, the values for the Cmax in [3] and in series [8] were 3650 ng/mL and 3400 ng/mL, respectively. For the same molecule, the Tmax (usually the time from dosing to the highest level) turned out to be 2.67 h in [4] and 4.98 min in series [9]. The half-life (commonly the time in which the quantity being followed falls by half) in [5] was 6.54 h; in series [10], 1.33 h. The results for the mean residence time (MRT last) in [6] and in series [11] were 4.71 h and 2.91 h, respectively. Moreover, the bioavailability (commonly the share of a dose that reaches the circulation, judged against a reference dose that is usually intravenous) in series [7] amounted to 88%.
For the molecule `CC(=O)O[C@H]1C(=O)[C@@]2(C)[C@H]([C@H](OC(=O)c3ccccc3)[C@]3(O)C[C@H](OC(=O)[C@H](O)[C@@H](NC(=O)c4ccccc4)c4ccccc4)C(C)=C1C3(C)C)[C@]1(OC(C)=O)CO[C@@H]1C[C@@H]2O` [PACLITAXEL], the Activity is 11.3% with B16-F10 [12]; 12.5% in the series with B16-F10 [13]; 24% with B16-F10 [14]; 18.1% in the series on A-375 [15]; 19.3% in the series on A-375 [16]; 20% with A-375 [17].
In the case of `C=C[C@]1(C)C[C@@H](OC(=O)CO)[C@]2(C)[C@H](C)CC[C@]3(CCC(=O)[C@H]32)[C@@H](C)[C@@H]1O` [PLEUROMULIN], the pIC50 in the series with B16-F10 [1], in the series with A-375 [2], with 4T1, in the series with Kasumi 1, with CT26 and with HCT-116 was under 4.00 throughout. The minimum inhibitory concentration (MIC) (as a rule, the least concentration at which growth counts as inhibited) in the series with Staphylococcus aureus was determined as 10 µg/mL (≈ 26.4 µM); in the series with Escherichia coli, 50 µg/mL (≈ 132 µM); in the series with Bacillus subtilis it was 100 µg/mL (≈ 264 µM).
In the case of `COc1cccc2c1C(=O)c1c(O)c3c(c(O)c1C2=O)C[C@@](O)(C(=O)CO)C[C@@H]3O[C@H]1C[C@H](N)[C@H](O)[C@H](C)O1`, the outcome in the series with B16-F10 [18] and in the series on B16-F10 [19] was Active.
